Experimental data published in patent US20060069132A1, “Azolecarboxamide herbicides” (priority 2004, published 2006).

Legend:
lambsquarters = experiment: Test C pre-/postemergence herbicide test; type: in vivo, Chenopodium album
Summary of the method: (§1)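 Visual ratings on a 0–100 scale (100 = complete control) made versus untreated controls after 12 to 14 greenhouse days. Test chemicals, formulated in surfactant-containing non-phytotoxic solvent, applied preemergence to planted seeds or postemergence to 1- to 4-leaf plants (2 to 18 cm).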

cocklebur = experiment: Test C pre-/postemergence herbicide test; type: in vivo, Xanthium strumarium
Summary of the method: as §1

[1] = test system: common (oilseed) sunflower; experiment: Test C pre-/postemergence herbicide test; type: in vivo, Helianthus annuus
Summary of the method: as §1

woolly cupgrass = experiment: Test C pre-/postemergence herbicide test; type: in vivo, Eriochloa villosa
Summary of the method: as §1

kochia = experiment: Test C pre-/postemergence herbicide test; type: in vivo, Kochia scoparia
Summary of the method: as §1

rice = experiment: Test C flooded paddy test; type: in vivo, Oryza sativa
Summary of the method: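 Postemergence sprays applied to plants 2 to 18 cm tall (1- to 4-leaf stage); paddy species grown to 2-leaf stage under flooding. After 12 to 14 days in greenhouse, visual rating versus untreated controls on 0–100 scale (0 no effect, 100 complete control).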

corn = experiment: Test C pre-/postemergence herbicide test; type: in vivo, Zea mays
Summary of the method: as §1

johnsongrass = experiment: Test C pre-/postemergence herbicide test; type: in vivo, Sorghum halepense
Summary of the method: as §1

Surinam grass = experiment: Test C pre-/postemergence herbicide test; type: in vivo, Urochloa decumbens
Summary of the method: as §1

eastern black nightshade = experiment: Test C pre-/postemergence herbicide test; type: in vivo, Solanum ptycanthum
Summary of the method: as §1

[2] = 62 g ai/ha, preemergence, scale 0 to 100
[3] = 125 g ai/ha, scale 0 (no effect) to 100 (complete control), visual, 12 to 14 days, preemergence
[4] = Preemergence, 500 g ai/ha, scale 0 to 100, 0 no effect, 100 complete control
[5] = 250 g ai/ha, scale 0 to 100 (0 no effect, 100 complete control), visual, 12 to 14 days, preemergence

CCNC(=O)c1ccc(F)c(NC(=O)C2CN(C(C)(C)C)N=C2CC)c1 (centres unmarked) [Compound 336, 1-(1,1-dimethylethyl)-3-ethyl-N-[5-[(ethylamino)carbonyl]-2-fluorophenyl]-4,5-dihydro-1H-pyrazole-4-carboxamide]
pest or weed control at 62 g/ha (lambsquarters; Chenopodium album, pre-emergence, 62 g ai/ha, preemergence, scale 0 to 100, read-out: Plant response rating, Lambsquarters): 100%
pest or weed control at 125 g/ha (lambsquarters; Chenopodium album, pre-emergence, 125 g ai/ha, scale 0 (no effect) to 100 (complete control), visual, 12 to 14 days, read-out: Plant response rating, Lambsquarters): 100%
pest or weed control at 250 g/ha (lambsquarters; Chenopodium album, pre-emergence, 250 g ai/ha, scale 0-100, read-out: Plant response rating, Lambsquarters): 100%
pest or weed control at 500 g/ha (lambsquarters; Chenopodium album, pre-emergence, 500 g ai/ha, scale 0 to 100 (0 no effect, 100 complete control), visual, 12 to 14 days, read-out: Plant response rating, Lambsquarters): 100%
pest or weed control at 62 g/ha (cocklebur; Xanthium strumarium, pre-emergence, 312 h, 62 g ai/ha, preemergence, scale 0 to 100, read-out: Plant response rating, Cocklebur): 0%
pest or weed control at 125 g/ha (cocklebur; Xanthium strumarium, pre-emergence, 312 h, 125 g ai/ha, scale 0 (no effect) to 100 (complete control), visual, 12 to 14 days, read-out: Plant response rating, Cocklebur): 5%
pest or weed control at 250 g/ha (cocklebur; Xanthium strumarium, pre-emergence, 312 h, 250 g ai/ha, scale 0-100, read-out: Plant response rating, Cocklebur): 30%
pest or weed control at 500 g/ha (cocklebur; Xanthium strumarium, pre-emergence, 312 h, 500 g ai/ha, scale 0 to 100 (0 no effect, 100 complete control), visual, 12 to 14 days, read-out: Plant response rating, Cocklebur): 50%
pest or weed control at 62 g/ha ([1]; Helianthus annuus, pre-emergence, 62 g ai/ha, preemergence, scale 0 to 100, read-out: Plant response rating, Sunflower): 0%
pest or weed control at 250 g/ha ([1]; Helianthus annuus, pre-emergence, 250 g ai/ha, scale 0-100, read-out: Plant response rating, Sunflower): 30%
pest or weed control at 500 g/ha ([1]; Helianthus annuus, pre-emergence, 500 g ai/ha, scale 0 to 100 (0 no effect, 100 complete control), visual, 12 to 14 days, read-out: Plant response rating, Sunflower): 45%
pest or weed control at 62 g/ha (woolly cupgrass; Eriochloa villosa, pre-emergence, 312 h, 62 g ai/ha, preemergence, scale 0 to 100, read-out: Plant response rating, Cupgrass, Woolly): 5%
pest or weed control at 125 g/ha (woolly cupgrass; Eriochloa villosa, pre-emergence, 312 h, 125 g ai/ha, scale 0 (no effect) to 100 (complete control), visual, 12 to 14 days, read-out: Plant response rating, Cupgrass, Woolly): 10%
pest or weed control at 250 g/ha (woolly cupgrass; Eriochloa villosa, pre-emergence, 312 h, 250 g ai/ha, scale 0-100, read-out: Plant response rating, Cupgrass, Woolly): 60%
pest or weed control at 500 g/ha (woolly cupgrass; Eriochloa villosa, pre-emergence, 312 h, 500 g ai/ha, scale 0 to 100 (0 no effect, 100 complete control), visual, 12 to 14 days, read-out: Plant response rating, Cupgrass, Woolly): 85%
pest or weed control at 62 g/ha (kochia; Bassia scoparia, pre-emergence, 62 g ai/ha, preemergence, scale 0 to 100, read-out: Plant response rating, Kochia): 5%
pest or weed control at 125 g/ha (kochia; Bassia scoparia, pre-emergence, 125 g ai/ha, scale 0 (no effect) to 100 (complete control), visual, 12 to 14 days, read-out: Plant response rating, Kochia): 70%
pest or weed control at 250 g/ha (kochia; Bassia scoparia, pre-emergence, 250 g ai/ha, scale 0-100, read-out: Plant response rating, Kochia): 100%
pest or weed control at 500 g/ha (kochia; Bassia scoparia, pre-emergence, 500 g ai/ha, scale 0 to 100 (0 no effect, 100 complete control), visual, 12 to 14 days, read-out: Plant response rating, Kochia): 100%
plant injury at 62 g/ha (rice; Oryza sativa, 62 g ai/ha, scale 0 to 100, read-out: Rice plant response rating): 10%
plant injury at 125 g/ha (rice; Oryza sativa, 125 g ai/ha, scale 0 to 100 (0 no effect, 100 complete control), read-out: Rice plant response rating): 45%
plant injury at 250 g/ha (rice; Oryza sativa, 250 g ai/ha, scale of 0 to 100, 0 is no effect, 100 is complete control, read-out: Rice plant response rating): 75%
plant injury at 500 g/ha (rice; Oryza sativa, 500 g ai/ha, visual rating after 12 to 14 days, scale 0 to 100 (0 no effect, 100 complete control), read-out: Plant response rating, Rice): 75%
Corn plant response rating (crop injury, 0 = no effect, 100 = complete kill) at 62 g/ha (corn; Zea mays, pre-emergence, 312 h, 62 g ai/ha, preemergence, scale 0 to 100): 10%
Corn plant response rating (crop injury, 0 = no effect, 100 = complete kill) at 125 g/ha (corn; Zea mays, pre-emergence, 312 h, 125 g ai/ha, scale 0 (no effect) to 100 (complete control), visual, 12 to 14 days): 35%
Corn plant response rating (crop injury, 0 = no effect, 100 = complete kill) at 250 g/ha (corn; Zea mays, pre-emergence, 312 h, 250 g ai/ha, scale 0-100): 85%
Corn plant response rating (crop injury, 0 = no effect, 100 = complete kill) at 500 g/ha (corn; Zea mays, pre-emergence, 312 h, 500 g ai/ha, scale 0 to 100 (0 no effect, 100 complete control), visual, 12 to 14 days): 85%
pest or weed control at 62 g/ha (johnsongrass; Sorghum halepense, pre-emergence, 62 g ai/ha, preemergence, scale 0 to 100, read-out: Plant response rating, Johnsongrass): 80%
pest or weed control at 125 g/ha (johnsongrass; Sorghum halepense, pre-emergence, 125 g ai/ha, scale 0 (no effect) to 100 (complete control), visual, 12 to 14 days, read-out: Plant response rating, Johnsongrass): 95%
pest or weed control at 250 g/ha (johnsongrass; Sorghum halepense, pre-emergence, 250 g ai/ha, scale 0-100, read-out: Plant response rating, Johnsongrass): 100%
pest or weed control at 500 g/ha (johnsongrass; Sorghum halepense, pre-emergence, 500 g ai/ha, scale 0 to 100 (0 no effect, 100 complete control), visual, 12 to 14 days, read-out: Plant response rating, Johnsongrass): 100%
pest or weed control at 62 g/ha (Surinam grass; Urochloa decumbens, pre-emergence, 312 h, 62 g ai/ha, preemergence, scale 0 to 100, read-out: Plant response rating, Surinam Grass): 50%
pest or weed control at 250 g/ha (Surinam grass; Urochloa decumbens, pre-emergence, 312 h, 250 g ai/ha, scale 0-100, read-out: Plant response rating, Surinam Grass): 100%
pest or weed control at 500 g/ha (Surinam grass; Urochloa decumbens, pre-emergence, 312 h, 500 g ai/ha, scale 0 to 100 (0 no effect, 100 complete control), visual, 12 to 14 days, read-out: Plant response rating, Surinam Grass): 100%
pest or weed control at 62 g/ha (eastern black nightshade; pre-emergence, 62 g ai/ha, preemergence, scale 0 to 100, read-out: Plant response rating, Nightshade): 85%
pest or weed control at 125 g/ha (eastern black nightshade; pre-emergence, 125 g ai/ha, scale 0 (no effect) to 100 (complete control), visual, 12 to 14 days, read-out: Plant response rating, Nightshade): 95%
pest or weed control at 250 g/ha (eastern black nightshade; pre-emergence, 250 g ai/ha, scale 0-100, read-out: Plant response rating, Nightshade): 100%
pest or weed control at 500 g/ha (eastern black nightshade; pre-emergence, 500 g ai/ha, scale 0 to 100 (0 no effect, 100 complete control), visual, 12 to 14 days, read-out: Plant response rating, Nightshade): 100%

CCNC(=O)c1ccnc(NC(=O)c2cc(C(C)(C)C)nn2CC)c1 [Compound 152]
Plant response rating, Lambsquarters (lambsquarters; [2]): 100
Plant response rating, Lambsquarters (lambsquarters; [3]): 100
Lambsquarters plant response rating (lambsquarters; [4]): 100
Plant response rating, Cocklebur (cocklebur; [3]): 65
Plant response rating, Cocklebur (cocklebur; [5]): 65
Cocklebur plant response rating (cocklebur; [4]): 100
Plant response rating, Sunflower [1, 2]: 0
Plant response rating, Sunflower [1, 3]: 10
Sunflower plant response rating [1, 4]: 70
Plant response rating, Cupgrass, Woolly (woolly cupgrass; [2]): 40
Plant response rating, Cupgrass, Woolly (woolly cupgrass; [3]): 50
Plant response rating, Cupgrass, Woolly (woolly cupgrass; [5]): 100
Cupgrass, Woolly plant response rating (woolly cupgrass; [4]): 100
Plant response rating, Kochia (kochia; [2]): 100
Plant response rating, Kochia (kochia; [3]): 100
Kochia plant response rating (kochia; [4]): 100
Rice plant response rating (rice; 62 g ai/ha, scale 0 to 100 (0 no effect, 100 complete control)): 50
Rice plant response rating (rice; 125 g ai/ha, scale 0 to 100 (0 no effect, 100 complete control)): 75
Rice plant response rating (rice; 250 g ai/ha, scale of 0 to 100, 0 is no effect, 100 is complete control): 75
Plant response rating, Rice (rice; 500 g ai/ha, visual rating after 12 to 14 days, scale 0 to 100 (0 no effect, 100 complete control)): 80
Plant response rating, Corn (corn; [2]): 40
Plant response rating, Corn (corn; [3]): 45
Plant response rating, Corn (corn; [5]): 50
Corn plant response rating (corn; [4]): 70
Plant response rating, Johnsongrass (johnsongrass; [2]): 80
Plant response rating, Johnsongrass (johnsongrass; [3]): 100
Johnsongrass plant response rating (johnsongrass; [4]): 100
Plant response rating, Surinam Grass (Surinam grass; [2]): 40
Plant response rating, Surinam Grass (Surinam grass; [3]): 60
Surinam Grass plant response rating (Surinam grass; [4]): 100
Plant response rating, Nightshade (eastern black nightshade; [2]): 80
Plant response rating, Nightshade (eastern black nightshade; [3]): 90
Nightshade plant response rating (eastern black nightshade; [4]): 100
